Source: US12551451B2, “Compositions and methods for delivering molecules” (SunVax mRNA Therapeutics Inc., priority 2023, dated 2026)

Test: LNP Characteristics (size, PDI, encapsulation efficiency) of LNPs formulated with novel ionizable lipids
Type: physicochemical
Conditions: LNP formulated with the ionizable lipid, DOPE, Cholesterol, DMG-PEG2000
Description: LNPs formulated using the novel ionizable lipids of the disclosure or control ionizable lipids MC3 and SM-102 were synthesized by mixing the lipid components of the LNP in ethanol at a predetermined molar ratio (ionizable lipid/DOPE/Cholesterol/DMG-PEG2000=30/15/50/1.5) to prepare an organic phase. Sa-mRNA encoding firefly luciferase (LUC) or green fluorescent protein (GFP) was diluted in 50 mM citrate buffer (pH 4.5, Fisher) to prepare an aqueous phase. The sa-mRNA was stored at −80° C. and was thawed on ice prior to use. The ethanol and aqueous phases were mixed at a 1:3 ratio by pipette with the N/P=4.2/1. The resultant LNPs were purified by ultrafiltration (100,000 cut-off, MilliporeSigma™ Amicon™ Ultra-15 Centrifugal Filter Units) at 4° C. prior to transfection into a cell, such as a T-cell.
LNPs formulated using novel ionizable lipids of the disclosure were synthesized using the procedure described in Example 2 and characterized. Table 4 below show the properties of each LNP formulated using a novel ionizable lipid of the disclosure.

| SMILES | Avg. Encapsulation Efficiency (EE) % [%] | Avg. PDI | Avg. Size [nm] |
| --- | --- | --- | --- |
| CCCCCCCCCCCCCCC(=O)N(C(CCCCCCC)CCCCCCC)C(CC1CCN(C)CC1)C(=O)NC1CCCCCC1 (stereo not drawn) [Lipid P40D7, N-(1-(cycloheptylamino)-3-(1-methylpiperidin-4-yl)-1-oxopropan-2-yl)-N-(pentadecan-8-yl)pentadecanamide] | 98.2 | 0.18 | 149.2 |
| CCCCCCCCCCCCC(CCCCCCCCCC)CN(C(=O)CCCCCCCCCC)C(C(=O)NC12CC3CC(CC(C3)C1)C2)C1CCN(CC)CC1 (stereo not drawn) [Lipid P54B6, N-(2-(((1s,3s)-adamantan-1-yl)amino)-1-(1-ethylpiperidin-4-yl)-2-oxoethyl)-N-(2-decyltetradecyl)undecanamide] | 93.4 | 0.10 | 181.2 |
| CCCCCCCC/C=C\CCCCCCCC(=O)N(C(CCCCCCC)CCCCCCC)C(C(=O)NC1CCCCCC1)C1CCN(CC)CC1 (stereo not drawn) [Lipid P149A1, N-(2-(cycloheptylamino)-1-(1-ethylpiperidin-4-yl)-2-oxoethyl)-N-(pentadecan-8-yl)oleamide] | 92.9 | 0.10 | 219 |
| CCCCCCCCCCCCOC(=O)CCC(=O)N(C(CCCCCCCCC)CCCCCCCCC)C(C(=O)NC1CCCCCC1)C1CCN(CC)CC1 (stereo not drawn) [Lipid P153C3, dodecyl 4-((2-(cycloheptylamino)-1-(1-ethylpiperidin-4-yl)-2-oxoethyl)(nonadecan-10-yl)amino)-4-oxobutanoate] | 86.8 | 0.07 | 86.8 |
| CCCCCCCCCCC(CCCCCCCC)CN(C(=O)CCC(C)C1CCC2C3CC(O)C4CC(O)CCC4(C)C3CCC12C)C(CC1CCN(C)CC1)C(=O)NC12CC3CC(CC(C3)C1)C2 (stereo not drawn) [Lipid P161F10, N-(1-(((1s,3s)-adamantan-1-yl)amino)-3-(1-methylpiperidin-4-yl)-1-oxopropan-2-yl)-4-(3,6-dihydroxy-10,13-dimethylhexadecahydro-1H-cyclopenta[a]phenanthren-17-yl)-N-(2-octyldodecyl)pentanamide] | 87.9 | 0.19 | 225 |
| CCCCCCCCCCCC(=O)N(CC(CCCCCCCC)CCCCCCCCCC)C(CC1CCN(C)CC1)C(=O)NC1CCCCCC1 (stereo not drawn) [Lipid P40C10, N-(1-(cycloheptylamino)-3-(1-methylpiperidin-4-yl)-1-oxopropan-2-yl)-N-(2-octyldodecyl)dodecanamide] | 99.1 | 0.25 | 192.9 |
| CCCCCCCCCCCCCCCCC(=O)N(C(CCCCCCC)CCCCCCC)C(C(=O)NC12CC3CC(CC(C3)C1)C2)C1CCN(CC)CC1 (stereo not drawn) [Lipid P56B1, N-(2-(((1s,3s)-adamantan-1-yl)amino)-1-(1-ethylpiperidin-4-yl)-2-oxoethyl)-N-(pentadecan-8-yl)heptadecanamide] | 90.6 | 0.10 | 173.2 |
| CCCCCCCCCCCCCC(=O)N(C(CCCCCCCC)CCCCCCCC)C(CC1CCN(C)CC1)C(=O)NC1CCCCCC1 (stereo not drawn) [Lipid P38D8, N-(1-(cycloheptylamino)-3-(1-methylpiperidin-4-yl)-1-oxopropan-2-yl)-N-(heptadecan-9-yl)tetradecanamide] | 95.4 | 0.18 | 186.9 |
| CCCCCCCCCCCCOC(=O)CCC(=O)N(CC(CCCCCCCC)CCCCCCCCCC)C(C(=O)NC1CCCCCC1)C1CCCN(CC)C1 (stereo not drawn) [Lipid P159C10, dodecyl 4-((2-(cycloheptylamino)-1-(1-ethylpiperidin-3-yl)-2-oxoethyl)(2-octyldodecyl)amino)-4-oxobutanoate] | 95.8 | 0.13 | 174 |
| CCCCCCCCCN(CCCCCCCCC)CCC(=O)N1CN(C(=O)CCN(CCCCCCCCC)CCCCCCCCC)CN(C(=O)CCN(CCCCCCCCC)CCCCCCCCC)C1 [Lipid E2, 1,1′,1″-(1,3,5-triazinane-1,3,5-triyl)tris(3-(dinonylamino)propan-1-one)] | 95.1 | 0.1 | 200 |
| CCCCCCCCCCCCC(CCCCCCCCCC)CN(C(=O)CCCCCCCCC)C(C(=O)NC(C)(C)C)C1CCN(CC)CC1 (stereo not drawn) [Lipid P53A6, N-(2-(tert-butylamino)-1-(1-ethylpiperidin-4-yl)-2-oxoethyl)-N-(2-decyltetradecyl)decanamide] | 98.3 | 0.16 | 175.6 |
| CCCCCCCCCCCCCCCC(=O)N(C(CCCCCCC)CCCCCCC)C(C(=O)NC12CC3CC(CC(C3)C1)C2)C1CCN(CC)CC1 (stereo not drawn) [Lipid P56A1, N-(2-(((1s,3s)-adamantan-1-yl)amino)-1-(1-ethylpiperidin-4-yl)-2-oxoethyl)-N-(pentadecan-8-yl)palmitamide] | 89.1 | 0.12 | 186.3 |
| CCCCCCCCCCCCCCCCCC(=O)N(C(CCCCCCC)CCCCCCC)C(CC1CCN(C)CC1)C(=O)NC1CCCCC1 (stereo not drawn) [Lipid P30C7, N-(1-(cyclohexylamino)-3-(1-methylpiperidin-4-yl)-1-oxopropan-2-yl)-N-(pentadecan-8-yl)stearamide] | 93.9 | 0.11 | 166.8 |
| CCCCCCCCCCCCOC(=O)CCC(=O)N(C(CCCCCCCCCCC)CCCCCCCCCCC)C(C(=O)NC1CCCCCC1)C1CCN(CC)CC1 (stereo not drawn) [Lipid P153C5, dodecyl 4-((2-(cycloheptylamino)-1-(1-ethylpiperidin-4-yl)-2-oxoethyl)(tricosan-12-yl)amino)-4-oxobutanoate] | 62.0 | 0.14 | 169 |
| CCCCCCCCCCCCCCCC(=O)N(C(CCCCCCC)CCCCCCC)C(C(=O)NC1CCCCC1)C1CCN(CC)CC1 (stereo not drawn) [Lipid P30A1, N-(2-(cyclohexylamino)-1-(1-ethylpiperidin-4-yl)-2-oxoethyl)-N-(pentadecan-8-yl)palmitamide] | 97.8 | 0.11 | 176.6 |
| CCCCCCCCCCCC(=O)N(C(CCCCCCCCCCC)CCCCCCCCCCC)C(CC1CCN(C)CC1)C(=O)NC1CCCCCC1 (stereo not drawn) [Lipid P40C11, N-(1-(cycloheptylamino)-3-(1-methylpiperidin-4-yl)-1-oxopropan-2-yl)-N-(tricosan-12-yl)dodecanamide] | 96.6 | 0.14 | 189.3 |
| CCCCCCCC/C=C\CCCCCCCC(=O)N(C(CCCCCCCC)CCCCCCCC)C(C(=O)NC1CCCCCC1)C1CCN(CC)CC1 (stereo not drawn) [Lipid P149A2, N-(2-(cycloheptylamino)-1-(1-ethylpiperidin-4-yl)-2-oxoethyl)-N-(heptadecan-9-yl)oleamide] | 92.0 | 0.10 | 218 |
| CCCCCCCCCCCCCCCC(=O)N(C(CCCCCCCC)CCCCCCCC)C(C(=O)NC1=CCCCC1)C1CCN(CC)CC1 (stereo not drawn) [Lipid P6A2, N-(2-(cyclohex-1-en-1-ylamino)-1-(1-ethylpiperidin-4-yl)-2-oxoethyl)-N-(heptadecan-9-yl)palmitamide] | 90.4 | 0.12 | 190.7 |
